US20240158348A1, “HERBICIDAL CYCLIC AMIDES N-SUBSTITUTED WITH A HALOALKYLSULFONYLANILIDE GROUP” (FMC Corporation, priority 2021, published 2024)

How the values were obtained:
Assay type in all cases: in vivo
corn (Zea mays) [1] = assay: Test C preemergence, corn; settings: 0 is no effect, 100 is complete control
Description: (§1) Seeds of plant species selected from blackgrass (Alopecurus myosuroides), corn (Zea mays), foxtail, giant (giant foxtail, Setaria faberi), goosegrass (Eleusine indica), kochia (Bassia scoparia), oat, wild (wild oat, Avena fatua), pigweed, palmer (palmer amaranth, Amaranthus palmeri), ragweed (common ragweed, Ambrosia artemisiifolia), ryegrass, Italian (Italian ryegrass, Lolium multiflorum), soybean (Glycine max) and wheat (Triticum aestivum) were planted into a blend of loam soil and sand and treated preemergence with a directed soil spray using test chemicals formulated in a non-phytotoxic solvent mixture which included a surfactant.
(§2) At the same time, plants selected from these crop and weed species and also galium (catchweed bedstraw, Galium aparine) and horseweed (Erigeron canadensis) were planted in pots containing the same blend of loam soil and sand and treated with postemergence applications of test chemicals formulated in the same manner. Plants ranged in height from 2 to 10 cm and were in the one- to two-leaf stage for the postemergence treatment. Treated plants and untreated controls were maintained in a greenhouse for 10 or 12 days, after which time all treated plants were compared to untreated controls and visually evaluated for injury. Plant response ratings, summarized in Table A, are based on a 0 to 100 scale where 0 is no effect and 100 is complete control. A dash (-) response means no test result.

[2] = tested on: foxtail, giant (giant foxtail, Setaria faberi); assay: Test C preemergence, giant foxtail; settings: 0 is no effect, 100 is complete control
Description: as §1, §2

[3] = tested on: goosegrass (Eleusine indica); assay: Test C preemergence, goosegrass; settings: 0 is no effect, 100 is complete control
Description: as §1, §2

kochia (Bassia scoparia) [4] = assay: Test C preemergence, kochia; settings: 0 is no effect, 100 is complete control
Description: as §1, §2

[5] = tested on: oat, wild (wild oat, Avena fatua); assay: Test C preemergence, wild oat; settings: 0 is no effect, 100 is complete control
Description: as §1, §2

[6] = tested on: pigweed, palmer (palmer amaranth, Amaranthus palmeri); assay: Test C preemergence, palmer amaranth; settings: 0 is no effect, 100 is complete control
Description: as §1, §2

[7] = tested on: ragweed (common ragweed, Ambrosia artemisiifolia); assay: Test C preemergence, ragweed; settings: 125 g ai/ha Preemergence; 0 is no effect, 100 is complete control
Description: as §1, §2

[8] = tested on: ryegrass, Italian (Italian ryegrass, Lolium multiflorum); assay: Test C preemergence, Italian ryegrass; settings: 0 is no effect, 100 is complete control
Description: as §1, §2

soybean (Glycine max) [9] = assay: Test C preemergence, soybean; settings: 0 is no effect, 100 is complete control
Description: as §1, §2

[10] = tested on: wheat (Triticum aestivum); assay: Test C preemergence, wheat; settings: 0 is no effect, 100 is complete control
Description: as §1, §2

[11] = tested on: blackgrass (Alopecurus myosuroides); assay: Test C postemergence, blackgrass; settings: visual injury, 0 to 100 scale (0 no effect, 100 complete control)
Description: as §1, §2

corn (Zea mays) [12] = assay: Test C postemergence, corn; settings: visual injury, 0 to 100 scale (0 no effect, 100 complete control)
Description: as §1, §2

[13] = tested on: foxtail, giant (giant foxtail, Setaria faberi); assay: Test C postemergence, giant foxtail; settings: visual injury, 0 to 100 scale (0 no effect, 100 complete control)
Description: as §1, §2

[14] = tested on: goosegrass (Eleusine indica); assay: Test C postemergence, goosegrass; settings: visual injury, 0 to 100 scale (0 no effect, 100 complete control)
Description: as §1, §2

kochia (Bassia scoparia) [15] = assay: Test C postemergence, kochia; settings: visual injury, 0 to 100 scale (0 no effect, 100 complete control)
Description: as §1, §2

[16] = tested on: oat, wild (wild oat, Avena fatua); assay: Test C postemergence, wild oat; settings: visual injury, 0 to 100 scale (0 no effect, 100 complete control)
Description: as §1, §2

[17] = tested on: pigweed, palmer (palmer amaranth, Amaranthus palmeri); assay: Test C postemergence, palmer amaranth; settings: visual injury, 0 to 100 scale (0 no effect, 100 complete control)
Description: as §1, §2

[18] = tested on: ragweed (common ragweed, Ambrosia artemisiifolia); assay: Test C postemergence, ragweed; settings: visual injury, 0 to 100 scale (0 no effect, 100 complete control)
Description: as §1, §2

[19] = tested on: ryegrass, Italian (Italian ryegrass, Lolium multiflorum); assay: Test C postemergence, Italian ryegrass; settings: visual injury, 0 to 100 scale (0 no effect, 100 complete control)
Description: as §1, §2

soybean (Glycine max) [20] = assay: Test C postemergence, soybean; settings: visual injury, 0 to 100 scale (0 no effect, 100 complete control)
Description: as §1, §2

[21] = tested on: wheat (Triticum aestivum); assay: Test C postemergence, wheat; settings: visual injury, 0 to 100 scale (0 no effect, 100 complete control)
Description: as §1, §2

[22] = tested on: horseweed (Erigeron canadensis); assay: Test C postemergence, horseweed; settings: visual injury, 0 to 100 scale (0 no effect, 100 complete control)
Description: as §1, §2

[23] = tested on: barnyardgrass (Echinochloa crusgalli); assay: Test D flooded paddy test, barnyardgrass; parameters: key: 0 = no effect, 100 = complete control; settings: 250 g ai/ha, Flood; applied to paddy water at 2-leaf stage; visual rating after 13 days; scale 0 (no effect) to 100 (complete control)
Description: (§3) Plant species in the flooded paddy test selected from barnyardgrass (Echinochloa crusgalli), ducksalad (Heteranthera limosa), rice (Oryza sativa), and sedge, umbrella (small-flower umbrella sedge, Cyperus difformis) were grown to the 2-leaf stage for testing. At time of treatment, test pots were flooded to 3 cm above the soil surface, treated by application of test compounds directly to the paddy water, and then maintained at that water depth for the duration of the test. Treated plants and controls were maintained in a greenhouse for 13 days, after which time all species were compared to controls and visually evaluated. Plant response ratings, summarized in Table B, are based on a scale of 0 to 100 where 0 is no effect and 100 is complete control. A dash (-) response means no test result.

[24] = tested on: ducksalad (Heteranthera limosa); assay: Test D flooded paddy test, ducksalad; parameters: key: 0 = no effect, 100 = complete control; settings: 250 g ai/ha, Flood; applied to paddy water at 2-leaf stage; visual rating after 13 days; scale 0 (no effect) to 100 (complete control)
Description: as §3

rice (Oryza sativa) = assay: Test D flooded paddy test, rice; parameters: key: 0 = no effect, 100 = complete control; settings: 250 g ai/ha, Flood; applied to paddy water at 2-leaf stage; visual rating after 13 days; scale 0 (no effect) to 100 (complete control)
Description: as §3

[25] = tested on: sedge, umbrella (small-flower umbrella sedge, Cyperus difformis); assay: Test D flooded paddy test, umbrella sedge; parameters: key: 0 = no effect, 100 = complete control; settings: 250 g ai/ha, Flood; applied to paddy water at 2-leaf stage; visual rating after 13 days; scale 0 (no effect) to 100 (complete control)
Description: as §3

Cc1cc(C)c(N(COC(=O)C(C)(C)C)S(=O)(=O)C(F)(F)F)cc1N1CCC(OCC2CC(F)(F)C2)C1=O (centres unmarked) [Compound 55]
Plant response rating (0 to 100 scale), Corn (corn (Zea mays) [1]; 31 g ai/ha Preemergence): 0
Plant response rating (0 to 100 scale), Corn (corn (Zea mays) [1]; 125 g ai/ha Preemergence): 10
Plant response rating (0 to 100 scale), Foxtail, Giant ([2]; 31 g ai/ha Preemergence): 0
Plant response rating (0 to 100 scale), Foxtail, Giant ([2]; 125 g ai/ha Preemergence): 10
Plant response rating (0 to 100 scale), Goosegrass ([3]; 31 g ai/ha Preemergence): 10
Plant response rating (0 to 100 scale), Goosegrass ([3]; 125 g ai/ha Preemergence): 100
Plant response rating (0 to 100 scale), Kochia (kochia (Bassia scoparia) [4]; 31 g ai/ha Preemergence): 0
Plant response rating (0 to 100 scale), Kochia (kochia (Bassia scoparia) [4]; 125 g ai/ha Preemergence): 10
Plant response rating (0 to 100 scale), Oat, Wild ([5]; 31 g ai/ha Preemergence): 0
Plant response rating (0 to 100 scale), Oat, Wild ([5]; 125 g ai/ha Preemergence): 20
Plant response rating (0 to 100 scale), Pigweed, Palmer ([6]; 31 g ai/ha Preemergence): 0
Plant response rating (0 to 100 scale), Pigweed, Palmer ([6]; 125 g ai/ha Preemergence): 30
Plant response rating (0 to 100 scale), Ragweed [7]: 40
Plant response rating (0 to 100 scale), Ryegrass, Italian ([8]; 31 g ai/ha Preemergence): 20
Plant response rating (0 to 100 scale), Ryegrass, Italian ([8]; 125 g ai/ha Preemergence): 60
Plant response rating (0 to 100 scale), Soybean (soybean (Glycine max) [9]; 31 g ai/ha Preemergence): 0
Plant response rating (0 to 100 scale), Soybean (soybean (Glycine max) [9]; 125 g ai/ha Preemergence): 0
Plant response rating (0 to 100 scale), Wheat ([10]; 31 g ai/ha Preemergence): 10
Plant response rating (0 to 100 scale), Wheat ([10]; 125 g ai/ha Preemergence): 40
Blackgrass plant response rating ([11]; 31 g ai/ha Postemergence): 0
Blackgrass plant response rating ([11]; 125 g ai/ha Postemergence): 40
Corn plant response rating (corn (Zea mays) [12]; 31 g ai/ha Postemergence): 0
Corn plant response rating (corn (Zea mays) [12]; 125 g ai/ha Postemergence): 70
Foxtail, Giant plant response rating ([13]; 31 g ai/ha Postemergence): 30
Foxtail, Giant plant response rating ([13]; 125 g ai/ha Postemergence): 70
Goosegrass plant response rating ([14]; 31 g ai/ha Postemergence): 40
Goosegrass plant response rating ([14]; 125 g ai/ha Postemergence): 90
Kochia plant response rating (kochia (Bassia scoparia) [15]; 31 g ai/ha Postemergence): 0
Kochia plant response rating (kochia (Bassia scoparia) [15]; 125 g ai/ha Postemergence): 20
Oat, Wild plant response rating ([16]; 31 g ai/ha Postemergence): 20
Oat, Wild plant response rating ([16]; 125 g ai/ha Postemergence): 30
Pigweed, Palmer plant response rating ([17]; 31 g ai/ha Postemergence): 0
Pigweed, Palmer plant response rating ([17]; 125 g ai/ha Postemergence): 40
Ragweed plant response rating ([18]; 31 g ai/ha Postemergence): 50
Ragweed plant response rating ([18]; 125 g ai/ha Postemergence): 80
Ryegrass, Italian plant response rating ([19]; 31 g ai/ha Postemergence): 0
Ryegrass, Italian plant response rating ([19]; 125 g ai/ha Postemergence): 60
Soybean plant response rating (soybean (Glycine max) [20]; 31 g ai/ha Postemergence): 50
Soybean plant response rating (soybean (Glycine max) [20]; 125 g ai/ha Postemergence): 70
Wheat plant response rating ([21]; 31 g ai/ha Postemergence): 20
Wheat plant response rating ([21]; 125 g ai/ha Postemergence): 70
Horseweed plant response rating ([22]; 31 g ai/ha Postemergence): 80
Horseweed plant response rating ([22]; 125 g ai/ha Postemergence): 80
Plant response rating, Barnyardgrass [23]: 50
Plant response rating, Ducksalad [24]: 90
Plant response rating, Rice (rice (Oryza sativa)): 15
Plant response rating, Sedge, Umbrella [25]: 95
